From US5098900A, “3(2H)pyridazinone, process for its preparation and anti-allergic agent containing it” (Nissan Chemical Industries Ltd., priority 1984, dated 1992) come the findings set out here.

One series concerns LTC4. Briefly: LTC4 antagonism in isolated guinea-pig trachea (LTC4-induced contraction). As to conditions: 5 min, test compound 10^-5 g/ml, LTC4 2×10^-8 g/ml, guinea-pig trachea; for inhibition at 10 µg/mL: Cavia porcellus, read-out: LTC4 antagonism. Format: cell-based. As to the method: (§1) (ii) LTC4 and LTD4 antagonisms in guinea-pig trachea
(§2) Antagonism for LTC4 and LTD4 were determined in isolated guinea-pig trachea prepared as spiral strip. 10 Tracheal preparations were suspended under 1 g tension in […] and they were incubated for 1 hr prior to use. Contractile responses to LTC4 (2×10^-8 g/ml) and LTD4 (2×10^-8 g/ml) were obtained after the maximal response to histamine (10^-4 M). Test compounds dissolved in 100% dimethyl sulfoxide were added to the organ baths (final concentration of 10^-5 g/ml) 5 min prior to LTC4 and LTD4 addition, and then contractile responses to LTC4 and LTD4 were compared with those of control which was obtained from a paired trachea in the absence of test compounds. LTC4 - and LTD4 -induced contractions were expressed as a percentage of the maximal response to histamine. The antagonism was determined as follows: Antagonism (%)=(1.0-% contraction in test/% contraction in control)×100

For another series, the system named is LTD4. Briefly: LTD4 antagonism in isolated guinea-pig trachea (LTD4-induced contraction). The settings on record: Cavia porcellus, 5 min, test compound 10^-5 g/ml, LTD4 2×10^-8 g/ml. Type of series: cell-based. On the procedure: as §1, §2
Series [1] has as its system antigen-induced anaphylactic bronchoconstriction. Description: Effect on anaphylactic bronchoconstriction in passively sensitized guinea-pig. Format: in vivo. As to conditions: 2 mg/kg, i.v. On the procedure:
(iii) Effect on anaphylactic bronchoconstriction in passively sensitized guinea-pig
Male guinea-pigs (350-450 g) were passively sensitized with intravenous (i.v.) injection of 0.125 ml rabbit anti-EA serum (Cappel Laboratories) 1 day preceding the experiment. […] The right jugular vein was cannulated for the administration of the all agents and trachea was cannulated to record total pulmonary resistance. Guinea-pigs were artificially ventilated by a small animal respirator (Shinano, Model SN-480-7) set at a stroke volume of 4-5 ml and a rate of 50 breaths per min. […] The increase in air overflow volume was expressed as a percentage of the maximum bronchoconstriction obtained by clamping off the trachea. Following surgical preparation, the animals were pretreated with indomethacin (1.0 mg/kg, 10 min), pyrilamine (2 mg/kg, 6 min) and propranolol (0.1 mg/kg, 5 min) prior to the EA challenge (0.1 or 10 mg/kg). All test compounds, 2 mg/kg in 3% Tween 80 or 3% PEG-400, were administered 1 min before the EA challenge. Inhibition (%) of bronchoconstriction was determined as follows Inhibition (%)=(1.0% -maximum bronchoconstriction in test/% maximum bronchoconstriction in control) ×100.
In the Table, the dose of EA was 10 mg/kg, and each compound was dissolved or suspended in 3% Tween 80.
In the Table, the dose of EA was 0.1 mg/kg.
*: PEG represents polyethylene glycol400.

The subject of the next series is ddY strain male. Briefly: Acute toxicity test, method-(2), intraperitoneal injection. The settings on record: 7 days. Format: in vivo, ddY strain male (4 weeks old). As to the method:
The lethal ratio was determined in ddY strain male (4 weeks old) at 7 days after the intraperitoneal injection of test compounds.

`CCn1ncc(NCc2cccc(OC)c2)c(Cl)c1=O` [Compound No. 6]: the inhibition at 10 µg/mL in the series with LTC4 was determined as 33%; in the series on LTD4, 62%.

Turning to `CCn1ncc(NCc2ccc(OC)c(OC)c2)c(Cl)c1=O` [Compound No. 13], the “Inhibition of anaphylactic bronchoconstriction” value in series [1] (EA 10 mg/kg, 3% Tween 80) is 43%. Also, the inhibition at 10 µg/mL in the series on LTD4 amounted to 76%.

As for `CCCN(CCC)Cc1ccc(CN(C)c2cnn(C(C)(C)C)c(=O)c2Cl)cc1` [Compound No. 43, 4-Chloro-5-(4-di-n-propylaminomethyl-N-methylbenzylamino)-2-t-butyl-3(2H)pyridazinone], in series [1] (EA 10 mg/kg, 3% Tween 80), the “Inhibition of anaphylactic bronchoconstriction” value was determined as 14%. The inhibition at 10 µg/mL with LTC4 was found to be 57%.

Turning to `CC(C)n1ncc(NCc2ccccc2)c(Cl)c1=O` [Compound No. 74, 4-Chloro-5-(benzylamino)-2-i-propyl-3(2H)pyridazinone], the “Inhibition of anaphylactic bronchoconstriction” value in series [1] (EA 0.1 mg/kg, Tween 80) worked out at 31%. The molecule further showed an inhibition at 10 µg/mL in the series with LTD4 of 91%.

`Cc1ccc(CNc2cnn(C(C)C)c(=O)c2Cl)c(C)c1` [Compound No. 80]: the “Lethal ratio (Death number/Experimental number)” value with ddY strain male (200 mg/kg) is 0/2; with ddY strain male (400 mg/kg), 0/1. In addition, in the series with LTD4, the inhibition at 10 µg/mL came to 99%.

In the case of `CC(C)(C)n1ncc(NCc2ccc(/C=C/C(=O)O)cc2)c(Cl)c1=O` [compound 24], the inhibition at 10 µg/mL in the series with LTC4 is 7%.

Take `CCN(CC)c1ccc(CNc2cnn(C(C)(C)C)c(=O)c2Cl)cc1` [compound 29]: the inhibition at 10 µg/mL in the series with LTC4 turned out to be 68%.

On to `CC(C)(C)n1ncc(NCc2ccc(C(=O)N3CCOCC3)cc2)c(Cl)c1=O` [compound 40], for which the inhibition at 10 µg/mL in the series on LTC4 was 17%.

For the molecule `CN(C)Cc1ccc(CNc2cnn(C(C)(C)C)c(=O)c2Cl)cc1` [compound 48], in the series on LTC4, the inhibition at 10 µg/mL turned out to be 30%.

On to `CCN1CCN(Cc2ccc(CNc3cnn(C(C)(C)C)c(=O)c3Cl)cc2)CC1` [compound 49], for which, in the series with LTC4, the LTC4 antagonism was 8%.

Regarding `COC(=O)/C=C/c1ccc(CNc2cnn(C(C)(C)C)c(=O)c2Cl)cc1` [compound 53], the “Inhibition of anaphylactic bronchoconstriction” value in series [1] (EA 10 mg/kg, 3% Tween 80) was found to be 38%. The inhibition at 10 µg/mL in the series with LTD4 was found to be 38%.

`CN(C)CCCNC(=O)c1ccc(CNc2cnn(C(C)(C)C)c(=O)c2Cl)cc1` [compound 59]: the inhibition at 10 µg/mL in the series with LTC4 was 17%.

Take `Cc1cccc(CNc2cnn(C(C)C)c(=O)c2Cl)c1` [compound 76]: the “Lethal ratio (Death number/Experimental number)” value in the series on ddY strain male (200 mg/kg) is recorded as 0/2; with ddY strain male (400 mg/kg) it was 0/1. Further, the inhibition at 10 µg/mL with LTD4 came to 97%.

Consider `Cc1ccc(CNc2cnn(C(C)C)c(=O)c2Cl)cc1` [compound 77], for which the “Lethal ratio (Death number/Experimental number)” value with ddY strain male (200 mg/kg) and with ddY strain male (400 mg/kg) was 0/2 throughout. Moreover, the inhibition at 10 µg/mL in the series with LTD4 worked out at 90%.

Consider `Cc1ccccc1CNc1cnn(C(C)C)c(=O)c1Cl` [compound 78], for which the “Lethal ratio (Death number/Experimental number)” value was 0/2 in the series with ddY strain male (200 mg/kg) and 0/1 in the series with ddY strain male (400 mg/kg). Also, in the series on LTD4, the inhibition at 10 µg/mL was 97%.

Regarding `CCOc1ccccc1CNc1cnn(CC)c(=O)c1Cl` [compound 90], the “Lethal ratio (Death number/Experimental number)” value in the series on ddY strain male (200 mg/kg) and with ddY strain male (400 mg/kg) was 0/2 each time. The molecule also yielded an inhibition at 10 µg/mL in the series with LTD4 of 96%.

In the case of `CCCOc1cccc(CNc2cnn(CC)c(=O)c2Cl)c1` [compound 93], the results for the inhibition at 10 µg/mL in the series on LTC4 and in the series on LTD4 were 93% and 96%, respectively.

Turning to `CCCOc1cccc(CNc2cnn(C(C)C)c(=O)c2Cl)c1` [compound 94], the values for the inhibition at 10 µg/mL with LTC4 and in the series on LTD4 were 83% and 75%, respectively. In the series with ddY strain male (200 mg/kg), the “Lethal ratio (Death number/Experimental number)” value is reported as 0/2.

Turning to `CCn1ncc(NCc2ccc(OC)cc2OC)c(Cl)c1=O` [compound 99], in the series with ddY strain male (100 mg/kg), the “Lethal ratio (Death number/Experimental number)” value is on record as 0/2. Moreover, in the series with LTD4, the inhibition at 10 µg/mL is 99%.

Consider `CCOc1cc(CNc2cnn(CC)c(=O)c2Cl)ccc1OC` [compound 102], for which the figures for the inhibition at 10 µg/mL with LTC4 and in the series with LTD4 were 97% and 86%, respectively. For the same molecule, the “Lethal ratio (Death number/Experimental number)” value with ddY strain male (100 mg/kg) is 0/2.

On to `CCOc1cc(OC)ccc1CNc1cnn(C(C)C)c(=O)c1Cl` [compound 109], for which the “Inhibition of anaphylactic bronchoconstriction” value in series [1] (EA 0.1 mg/kg, Tween 80) is recorded as 30%. This molecule also showed an inhibition at 10 µg/mL in the series on LTD4 of 92%.

`CCCOc1cc(OC)ccc1CNc1cnn(CC)c(=O)c1Cl` [compound 112]: the “Inhibition of anaphylactic bronchoconstriction” value in series [1] (EA 0.1 mg/kg, Tween 80) was 49%. This molecule had an inhibition at 10 µg/mL in the series with LTD4 of 86%.

`CCOc1cccc(CNc2cnn(C(C)C)c(=O)c2)c1O` [compound 128]: the inhibition at 10 µg/mL in the series on LTD4 was 21%.

Turning to `CCOc1cccc(CNc2cnn(CC)c(=O)c2Cl)c1O` [compound 129], the inhibition at 10 µg/mL in the series on LTD4 worked out at 48%.

With `CC(C)n1ncc(NCc2ccc(O)cc2)c(Cl)c1=O` [compound 130], the inhibition at 10 µg/mL in the series with LTD4 came out at 100%.

As to `CCc1cc(CNc2cnn(C(C)C)c(=O)c2Cl)ccc1O` [compound 131], in the series with LTD4, the inhibition at 10 µg/mL is 52%.

For the molecule `CCc1cc(CNc2cnn(CC)c(=O)c2Cl)ccc1O` [compound 132], the inhibition at 10 µg/mL in the series on LTD4 was 61%.

The molecule `CCCOc1cc(CNc2cnn(C(C)C)c(=O)c2Cl)ccc1O` [compound 133] had an inhibition at 10 µg/mL with LTD4 of 66%.

In the case of `CCCOc1cc(CNc2cnn(CC)c(=O)c2Cl)ccc1O` [compound 134], the inhibition at 10 µg/mL in the series with LTD4 was 75%.

`CCOc1cc(CNc2cnn(C(C)C)c(=O)c2Cl)ccc1O` [compound 135]: the inhibition at 10 µg/mL in the series with LTD4 was determined as 61%.

As for `CCOc1cc(CNc2cnn(CC)c(=O)c2Cl)ccc1O` [compound 136], the inhibition at 10 µg/mL in the series with LTD4 was determined as 64%.

Molecule `COc1ccc(CNc2cnn(C(C)C)c(=O)c2Cl)cc1O` [compound 138] displayed an inhibition at 10 µg/mL with LTD4 of 86%.

In the case of `COc1ccc(CNc2cnn(C(C)C)c(=O)c2Cl)cc1OCCCCC(=O)OC(C)(C)C` [compound 141], the inhibition at 10 µg/mL in the series on LTD4 was 90%.

In the series on LTD4, `COc1ccc(CNc2cnn(C(C)C)c(=O)c2Cl)cc1OCCCCC(=O)O` [compound 143] returned an inhibition at 10 µg/mL of 28%.

As to `COC(=O)CCCCOc1cc(CNc2cnn(C(C)C)c(=O)c2Cl)ccc1OC` [compound 145], in the series with LTD4, the inhibition at 10 µg/mL amounted to 81%.

On to `COCCOc1cc(CNc2cnn(C(C)C)c(=O)c2Cl)ccc1OC` [compound 148], for which the inhibition at 10 µg/mL in the series with LTD4 was found to be 62%.

Regarding `CCOc1cccc(CNc2cnn(C(C)C)c(=O)c2C)c1` [compound 152], the inhibition at 10 µg/mL in the series with LTD4 was 75%.

Consider `CCCOc1cc(CNc2cnn(C(C)C)c(=O)c2C)ccc1OC` [compound 153], for which the inhibition at 10 µg/mL in the series with LTD4 turned out to be 45%.

In the series with LTD4, `CCn1ncc(NCc2ccc(OC)cc2)c(Br)c1=O` [compound 154] gave an inhibition at 10 µg/mL of 100%.

As to `CCOc1ccc(CNc2cnn(CC)c(=O)c2Br)cc1` [compound 155], the inhibition at 10 µg/mL in the series with LTD4 stood at 60%.

For `CCOc1cccc(CNc2cnn(CC)c(=O)c2Br)c1` [compound 156], the inhibition at 10 µg/mL with LTD4 came to 72%.

Molecule `CCCOc1cccc(CNc2cnn(CC)c(=O)c2Br)c1` [compound 157] showed an inhibition at 10 µg/mL in the series with LTD4 of 88%.

Consider `CCn1ncc(NCc2ccc(C)cc2C)c(Br)c1=O` [compound 158], for which the inhibition at 10 µg/mL with LTD4 came to 99%.

With `CCn1ncc(NCc2ccc(OC)cc2OC)c(Br)c1=O` [compound 159], the inhibition at 10 µg/mL in the series on LTD4 stood at 98%.

In the case of `CCOc1cc(CNc2cnn(CC)c(=O)c2Br)ccc1OC` [compound 160], in the series on LTD4, the inhibition at 10 µg/mL amounted to 98%.

In the series with LTD4, `CCCOc1cc(CNc2cnn(CC)c(=O)c2Br)ccc1OC` [compound 161] registered an inhibition at 10 µg/mL of 95%.

In turn, `COc1ccc(CNc2cnn(C(C)C)c(=O)c2Br)cc1` [compound 162] gave an inhibition at 10 µg/mL in the series with LTD4 of 100%.

`COc1cccc(CNc2cnn(C(C)C)c(=O)c2Br)c1` [compound 163] registered an inhibition at 10 µg/mL in the series with LTD4 of 95%.

With `CCOc1cccc(CNc2cnn(C(C)C)c(=O)c2Br)c1` [compound 165], the inhibition at 10 µg/mL in the series with LTD4 came to 71%.

On to `CCOc1cc(CNc2cnn(C(C)C)c(=O)c2Br)ccc1OC` [compound 166], for which the inhibition at 10 µg/mL in the series on LTD4 was 100%.

`CCCOc1cc(CNc2cnn(C(C)C)c(=O)c2Br)ccc1OC` [compound 167] gave an inhibition at 10 µg/mL in the series with LTD4 of 96%.

`Cc1ccc(CNc2cnn(C(C)C)c(=O)c2Br)c(C)c1` [compound 168]: the inhibition at 10 µg/mL with LTD4 is 99%.

Turning to `COc1ccc(CNc2cnn(C(C)C)c(=O)c2Br)c(OC)c1` [compound 169], in the series with LTD4, the inhibition at 10 µg/mL stood at 100%.
